What follows are molecules tested against T1, N-type Ca2+ channels in IMR-32 cells (Homo sapiens, UniProt Q00975) (assay: Inhibition of N-type calcium flux in IMR-32 cells (Indo-1 fluorescence, nitrendipine present)). Conditions: 1 μM.
T1 construct: host or cells: IMR-32 cells, differentiated with dibutyryl cAMP and bromodeoxyuridine
Format: cell-based
Summary of the method: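 Differentiated IMR-32 cells (7–13 days) were loaded with 5 μM Indo-1 AM, preincubated with compound for 10 min at 30° C, and depolarized with KCl/CaCl2 stimulation solution, with 5 μM nitrendipine blocking L-channels. Peak-minus-basal 400/490 nm emission ratio was plotted against drug concentration, and IC50 came from four-parameter logistic fits.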

T1 sequence (Q00975 whole entry): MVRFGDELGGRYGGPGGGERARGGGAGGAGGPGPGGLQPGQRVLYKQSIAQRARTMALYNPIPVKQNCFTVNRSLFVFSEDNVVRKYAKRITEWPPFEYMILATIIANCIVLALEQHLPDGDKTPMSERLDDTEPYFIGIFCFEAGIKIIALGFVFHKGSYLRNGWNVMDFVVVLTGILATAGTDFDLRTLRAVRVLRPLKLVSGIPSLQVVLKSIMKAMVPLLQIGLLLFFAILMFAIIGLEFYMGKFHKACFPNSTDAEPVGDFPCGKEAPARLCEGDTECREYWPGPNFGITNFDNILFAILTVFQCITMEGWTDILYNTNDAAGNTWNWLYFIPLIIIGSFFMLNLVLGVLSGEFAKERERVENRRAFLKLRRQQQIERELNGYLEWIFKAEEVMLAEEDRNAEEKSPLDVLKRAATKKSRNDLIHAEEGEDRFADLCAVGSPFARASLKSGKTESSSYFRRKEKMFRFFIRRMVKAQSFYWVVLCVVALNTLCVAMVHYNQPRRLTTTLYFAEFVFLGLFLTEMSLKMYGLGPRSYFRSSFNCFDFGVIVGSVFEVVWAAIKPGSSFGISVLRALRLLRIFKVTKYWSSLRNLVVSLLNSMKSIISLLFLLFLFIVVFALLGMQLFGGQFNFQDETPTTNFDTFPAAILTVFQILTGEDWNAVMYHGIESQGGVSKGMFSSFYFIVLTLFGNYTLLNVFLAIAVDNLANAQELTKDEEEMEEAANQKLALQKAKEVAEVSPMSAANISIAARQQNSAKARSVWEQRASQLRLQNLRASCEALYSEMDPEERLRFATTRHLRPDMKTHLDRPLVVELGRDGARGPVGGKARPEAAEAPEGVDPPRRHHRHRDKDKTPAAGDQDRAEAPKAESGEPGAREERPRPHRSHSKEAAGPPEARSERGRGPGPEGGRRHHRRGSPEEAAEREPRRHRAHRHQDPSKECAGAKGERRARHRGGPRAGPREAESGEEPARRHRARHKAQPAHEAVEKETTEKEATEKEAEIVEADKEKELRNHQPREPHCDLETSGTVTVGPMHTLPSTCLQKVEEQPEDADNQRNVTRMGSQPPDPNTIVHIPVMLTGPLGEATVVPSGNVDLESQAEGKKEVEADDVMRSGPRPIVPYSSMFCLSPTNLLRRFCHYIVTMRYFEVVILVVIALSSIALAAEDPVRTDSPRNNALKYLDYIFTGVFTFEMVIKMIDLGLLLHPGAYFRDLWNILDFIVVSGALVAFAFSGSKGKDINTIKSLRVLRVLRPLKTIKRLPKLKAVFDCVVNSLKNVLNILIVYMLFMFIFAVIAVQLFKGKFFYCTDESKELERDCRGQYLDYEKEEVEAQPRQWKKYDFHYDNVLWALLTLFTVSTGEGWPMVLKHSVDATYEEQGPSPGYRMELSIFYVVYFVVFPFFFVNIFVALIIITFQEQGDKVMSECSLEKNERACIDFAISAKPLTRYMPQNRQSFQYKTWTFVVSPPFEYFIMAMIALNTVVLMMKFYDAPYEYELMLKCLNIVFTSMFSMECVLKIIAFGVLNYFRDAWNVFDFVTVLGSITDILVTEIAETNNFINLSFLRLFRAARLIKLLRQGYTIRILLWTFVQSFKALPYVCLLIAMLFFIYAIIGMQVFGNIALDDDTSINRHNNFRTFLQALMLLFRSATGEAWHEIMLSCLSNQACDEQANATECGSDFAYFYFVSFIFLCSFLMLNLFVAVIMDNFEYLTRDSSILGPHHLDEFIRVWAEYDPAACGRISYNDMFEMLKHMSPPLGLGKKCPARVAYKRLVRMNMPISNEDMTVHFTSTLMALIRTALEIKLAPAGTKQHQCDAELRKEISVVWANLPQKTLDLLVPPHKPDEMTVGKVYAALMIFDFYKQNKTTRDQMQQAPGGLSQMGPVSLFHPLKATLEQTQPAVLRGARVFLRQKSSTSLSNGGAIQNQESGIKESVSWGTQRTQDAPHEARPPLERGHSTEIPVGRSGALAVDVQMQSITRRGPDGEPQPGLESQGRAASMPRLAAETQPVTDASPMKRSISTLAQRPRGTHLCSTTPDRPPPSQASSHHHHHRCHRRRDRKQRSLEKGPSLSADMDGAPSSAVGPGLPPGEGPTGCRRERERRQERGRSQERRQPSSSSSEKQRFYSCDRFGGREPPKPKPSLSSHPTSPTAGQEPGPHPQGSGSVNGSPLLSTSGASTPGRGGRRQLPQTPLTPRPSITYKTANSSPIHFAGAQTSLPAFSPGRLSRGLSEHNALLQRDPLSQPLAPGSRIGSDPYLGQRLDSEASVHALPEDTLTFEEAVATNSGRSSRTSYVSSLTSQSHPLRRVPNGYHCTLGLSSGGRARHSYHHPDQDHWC
T1 sequence (P54289 25-956 partner limits assumed): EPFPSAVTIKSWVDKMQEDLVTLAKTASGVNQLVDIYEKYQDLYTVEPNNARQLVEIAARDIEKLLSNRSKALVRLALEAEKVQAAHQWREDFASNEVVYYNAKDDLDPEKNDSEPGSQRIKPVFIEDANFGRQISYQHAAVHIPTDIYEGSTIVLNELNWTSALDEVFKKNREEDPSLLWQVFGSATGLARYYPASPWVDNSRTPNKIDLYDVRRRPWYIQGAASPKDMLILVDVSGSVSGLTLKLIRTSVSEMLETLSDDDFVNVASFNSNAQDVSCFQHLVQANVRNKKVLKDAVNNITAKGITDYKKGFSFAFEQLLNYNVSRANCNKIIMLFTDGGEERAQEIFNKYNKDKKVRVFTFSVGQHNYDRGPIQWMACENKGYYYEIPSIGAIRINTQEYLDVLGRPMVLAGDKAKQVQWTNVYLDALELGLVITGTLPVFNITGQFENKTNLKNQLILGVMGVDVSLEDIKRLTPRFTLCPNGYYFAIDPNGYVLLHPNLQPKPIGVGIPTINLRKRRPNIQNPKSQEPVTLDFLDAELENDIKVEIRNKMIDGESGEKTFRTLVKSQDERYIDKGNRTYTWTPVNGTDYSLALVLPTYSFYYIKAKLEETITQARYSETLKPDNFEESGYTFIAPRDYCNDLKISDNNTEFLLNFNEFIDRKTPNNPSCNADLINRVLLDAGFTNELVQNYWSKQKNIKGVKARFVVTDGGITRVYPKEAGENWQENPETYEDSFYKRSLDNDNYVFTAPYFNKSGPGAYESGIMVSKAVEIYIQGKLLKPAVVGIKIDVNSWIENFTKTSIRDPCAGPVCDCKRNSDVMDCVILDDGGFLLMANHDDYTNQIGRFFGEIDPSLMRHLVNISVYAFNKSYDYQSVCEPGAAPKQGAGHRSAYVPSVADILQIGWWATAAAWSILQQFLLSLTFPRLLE
T1 sequence (P54289 957-1103 partner limits assumed): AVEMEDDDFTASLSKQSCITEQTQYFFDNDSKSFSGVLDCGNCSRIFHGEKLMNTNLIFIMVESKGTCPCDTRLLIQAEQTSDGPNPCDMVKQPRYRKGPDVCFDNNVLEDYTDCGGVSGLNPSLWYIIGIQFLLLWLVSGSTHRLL
T1 sequence (P54284 whole entry partner): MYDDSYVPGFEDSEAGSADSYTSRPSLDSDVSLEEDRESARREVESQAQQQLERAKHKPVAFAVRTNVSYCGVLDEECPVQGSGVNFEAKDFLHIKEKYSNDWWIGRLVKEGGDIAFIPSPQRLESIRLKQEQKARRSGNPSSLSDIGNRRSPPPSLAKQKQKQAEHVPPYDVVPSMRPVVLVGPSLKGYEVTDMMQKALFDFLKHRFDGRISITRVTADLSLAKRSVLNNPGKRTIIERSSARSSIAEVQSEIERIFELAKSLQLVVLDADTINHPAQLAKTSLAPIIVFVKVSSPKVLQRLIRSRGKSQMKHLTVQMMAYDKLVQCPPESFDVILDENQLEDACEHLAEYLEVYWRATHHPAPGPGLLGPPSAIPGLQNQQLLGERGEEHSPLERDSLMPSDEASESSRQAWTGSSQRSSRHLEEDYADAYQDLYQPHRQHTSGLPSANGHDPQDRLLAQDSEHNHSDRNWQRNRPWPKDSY

Inhibition of Calcium Flux in IMR-32 Cells % Inhibition at 1 μM [%]	SMILES
54	CC(C)C[C@H](NC(=O)N1CCCCCC1)C(=O)N[C@@H](Cc1ccc(N(Cc2ccccc2)Cc2ccccc2)cc1)C(=O)NC(C)(C)C (relative stereo) [Example 133, [S-(R*,R*)]-Azepane-1-carboxylic acid {1-[2-(4-dibenzylamino-phenyl)-1-tert-butylcarbamoyl-ethylcarbamoyl]-3-methyl-butyl}-amide]
29	CC(C)C[C@H](NC(=O)N1CCCCCC1)C(=O)N[C@@H](Cc1ccc(C#Cc2ccccc2)cc1)C(=O)NC(C)(C)C (relative stereo) [Example 134, [S(R*,R*)]-Azepane-1-carboxylic acid {1-[1-tert-butylcarbamoyl-2-(4-phenylethynyl-phenyl)-ethylcarbamoyl]-3-methyl-butyl}-amide]
35	CC(C)C[C@H](NC(=O)N1CCCCCC1)C(=O)N[C@@H](Cc1ccc(OCc2ccccc2)cc1)C(=O)Nc1ccc(N(C)C)cc1 (relative stereo) [Example 215, [S-(R*,R*)]-Azepane-1-carboxylic acid {1-[2-(4-benzyloxy-phenyl)-1-(4-dimethylamino-phenylcarbamoyl)-ethylcarbamoyl]-3-methyl-butyl}-amide]

Same assay, conditions: 10 μM

SMILES	Inhibition of Calcium Flux in IMR-32 Cells % Inhibition at 10 μM [%]
CC(C)C[C@H](NS(=O)(=O)c1ccc2cccnc2c1)C(=O)N[C@@H](Cc1ccc(OCc2ccccc2)cc1)C(=O)OC(C)(C)C (relative stereo) [Example 109, [S-(R*,R*)]-3-(4-Benzyloxy-phenyl)-2-[4-methyl-2-(quinoline-7-sulfonylamino)-pentanoylamino]-propionic acid tert-butyl ester]	56
Cc1nn(C)c(Cl)c1S(=O)(=O)N[C@@H](CC(C)C)C(=O)N[C@@H](Cc1ccc(OCc2ccccc2)cc1)C(=O)OC(C)(C)C (relative stereo) [Example 110, [S-(R*,R*)]-3-(4-Benzyloxy-phenyl)-2-[2-(5-chloro-1,3-dimethyl-1H-pyrazole-4-sulfonylamino)-4-methyl-pentanoylamino]-propionic acid tert-butyl ester]	76
CC(C)C[C@H](NC(=O)Cc1c[nH]c2ccccc12)C(=O)C[C@H](Cc1ccc(OCc2ccccc2)cc1)C(=O)OC(C)(C)C (relative stereo) [Example 113, [S-(R*,R*)]-2-(4-Benzyloxy-benzyl)-5-(2-1H-indol-3-yl-acetylamino)-7-methyl-4-oxo-octanoic acid tert-butyl ester]	83
CC(C)C[C@H](NC(=O)Cc1cccnc1)C(=O)N[C@@H](Cc1ccc(OCc2ccccc2)cc1)C(=O)OC(C)(C)C (relative stereo) [Example 119, [S-(R*,R*)]-3-(4-Benzyloxy-phenyl)-2-[4-methyl-2-(2-pyridin-3-yl-acetylamino)pentanoylamino]-propionic acid tert-butyl ester]	65
CC(C)C[C@H](NC(=O)CCc1c[nH]c2ccccc12)C(=O)N[C@@H](Cc1ccc(OCc2ccccc2)cc1)C(=O)OC(C)(C)C (relative stereo) [Example 120, [S-(R*,R*)]-3-(4-Benzyloxy-phenyl)-2-[2-(3-1H-indol-3-yl-propionylamino)-4-methyl-pentanoylamino]-propionic acid tert-butyl ester]	65
Cc1nn(-c2ccccc2)nc1C(=O)N[C@@H](CC(C)C)C(=O)N[C@@H](Cc1ccc(OCc2ccccc2)cc1)C(=O)OC(C)(C)C (relative stereo) [Example 121, [S-(R*,R*)]-3-(4-Benzyloxy-phenyl)-2-{4-methyl-2-[(5-methyl-2-phenyl-2H-[1,2,3]triazole-4-carbonyl)-amino]-pentanoylamino}-propionic acid tert-butyl ester]	25
CC(C)C[C@H](NC(=O)c1ccno1)C(=O)N[C@@H](Cc1ccc(OCc2ccccc2)cc1)C(=O)OC(C)(C)C (relative stereo) [Example 123, [S-(R*,R*)]-3-(4-Benzyloxy-phenyl)-2-{2-1(isoxazole-5-carbonyl)-amino]-4-methyl-pentanoylamino}-propionic acid tert-butyl ester]	67
CC(C)C[C@H](NC(=O)c1cccnc1)C(=O)N[C@@H](Cc1ccc(OCc2ccccc2)cc1)C(=O)OC(C)(C)C (relative stereo) [Example 124, [S-(R*,R*)]-3-(4-Benzyloxy-phenyl)-2-{4-methyl-2-[(pyridine-3-carbonyl)-amino]pentanoylamino}-propionic acid tert-butyl ester]	60
CC(C)C[C@H](NC(=O)c1cnc2ccccc2n1)C(=O)N[C@@H](Cc1ccc(OCc2ccccc2)cc1)C(=O)OC(C)(C)C (relative stereo) [Example 126, [S-(R*,R*)]-3-(4-Benzyloxy-phenyl)-2-{4-methyl-2-[(quinoxaline-2-carbonyl)-amino]pentanoylamino}-propionic acid tert-butyl ester]	28
CC(C)C[C@H](NC(=O)C(F)(F)C(F)(F)F)C(=O)C[C@H](Cc1ccc(OCc2ccccc2)cc1)C(=O)OC(C)(C)C (relative stereo) [Example 127, [S-(R*,R*)]-2-(4-Benzyloxy-benzyl)-7-methyl-4-oxo-5-(2,2,3,3,3-pentafluoro-propionylamino)-octanoic acid tert-butyl ester]	61
Cc1onc(-c2ccccc2)c1C(=O)N[C@@H](CC(C)C)C(=O)N[C@@H](Cc1ccc(OCc2ccccc2)cc1)C(=O)OC(C)(C)C (relative stereo) [Example 131, [(S-(R*,R*)]-3-(4-Benzyloxy-phenyl)-2-{4-methyl-2-[(5-methyl-3-phenyl-isoxazole-4-carbonyl)amino]-pentanoylamino}-propionic acid tert-butyl ester]	44
CC(C)C[C@H](NC(=O)N1CCCCCC1)C(=O)N[C@@H](Cc1ccc(N(Cc2ccccc2)Cc2ccccc2)cc1)C(=O)NC(C)(C)C (relative stereo) [Example 133, [S-(R*,R*)]-Azepane-1-carboxylic acid {1-[2-(4-dibenzylamino-phenyl)-1-tert-butylcarbamoyl-ethylcarbamoyl]-3-methyl-butyl}-amide]	72
CC(C)C[C@H](NC(=O)N1CCCCCC1)C(=O)N[C@@H](Cc1ccc(C#Cc2ccccc2)cc1)C(=O)NC(C)(C)C (relative stereo) [Example 134, [S(R*,R*)]-Azepane-1-carboxylic acid {1-[1-tert-butylcarbamoyl-2-(4-phenylethynyl-phenyl)-ethylcarbamoyl]-3-methyl-butyl}-amide]	56
CC(C)C[C@H](NC(=O)N1CCCCCC1)C(=O)N[C@@H](Cc1ccc(OCc2ccccc2)cc1)C(=O)Nc1ccc(N(C)C)cc1 (relative stereo) [Example 215, [S-(R*,R*)]-Azepane-1-carboxylic acid {1-[2-(4-benzyloxy-phenyl)-1-(4-dimethylamino-phenylcarbamoyl)-ethylcarbamoyl]-3-methyl-butyl}-amide]	44

Now from value to molecule:

Inhibition of Calcium Flux in IMR-32 Cells % Inhibition at 10 μM [%]	SMILES
66	CCCCCCC(=O)N[C@@H](CC(C)C)C(=O)N[C@@H](Cc1ccc(OCc2ccccc2)cc1)C(=O)OC(C)(C)C (relative stereo) [Example 114, [S-(R*,R*)]-3-(4-Benzyloxy-phenyl)-2-(2-heptanoylamino-4-methyl-pentanoylamino)-propionic acid tert-butyl ester]
71	CC(C)C[C@H](NC(=O)C(C)C)C(=O)N[C@@H](Cc1ccc(OCc2ccccc2)cc1)C(=O)OC(C)(C)C (relative stereo) [Example 115, [S-(R*,R*)]-3-(4-Benzyloxy-phenyl)-2-(2-isobutyrylamino-4-methyl-pentanoylamino)-propionic acid tert-butyl ester]
53	CC(=O)N[C@@H](CC(C)C)C(=O)N[C@@H](Cc1ccc(OCc2ccccc2)cc1)C(=O)OC(C)(C)C (relative stereo) [Example 116, [S-(R*,R*)]-2-(2-Acetylamino-4-methyl-pentanoylamino)-3-(4-benzyloxy-phenyl)-propionic acid tert-butyl ester]
66	CCC(=O)N[C@@H](CC(C)C)C(=O)N[C@@H](Cc1ccc(OCc2ccccc2)cc1)C(=O)OC(C)(C)C (relative stereo) [Example 117, [S-(R*,R*)]-3-(4-Benzyloxy-phenyl)-2-(4-methyl-2-propionylamino-pentanoylamino)-propionic acid tert-butyl ester]
80	CCCC(=O)N[C@@H](CC(C)C)C(=O)N[C@@H](Cc1ccc(OCc2ccccc2)cc1)C(=O)OC(C)(C)C (relative stereo) [Example 118, [S-(R*,R*)]-3-(4-Benzyloxy-phenyl)-2-(2-butyrylamino-4-methyl-pentanoylamino)-propionic acid tert-butyl ester]
84	CC(C)C[C@H](NC(=O)Cc1cccs1)C(=O)N[C@@H](Cc1ccc(OCc2ccccc2)cc1)C(=O)OC(C)(C)C (relative stereo) [Example 122, [S-(R*,R*)]-3-(4-Benzyloxy-phenyl)-2-[4-methyl-2-(2-thiophen-2-yl-acetylamino)pentanoylamino]-propionic acid tert-butyl ester]
78	CC(C)C[C@H](NC(=O)C(F)(F)F)C(=O)N[C@@H](Cc1ccc(OCc2ccccc2)cc1)C(=O)OC(C)(C)C (relative stereo) [Example 128, [S-(R*,R*)]-3-(4-Benzyloxy-phenyl)-2-[4-methyl-2-(2,2,2-trifluoro-acetylamino)pentanoylamino]-propionic acid tert-butyl ester]
74	CC(C)C[C@H](NC(=O)C(C)(C)C)C(=O)N[C@@H](Cc1ccc(OCc2ccccc2)cc1)C(=O)OC(C)(C)C (relative stereo) [Example 129, [S-(R*,R*)]-3-(4-Benzyloxy-phenyl)-2-[2-(2,2-dimethyl-propionylamino)-4-methyl-pentanoylamino]-propionic acid tert-butyl ester]

Same assay, conditions: IMR-32 cells, 5 μM nitrendipine, K+ depolarization

IC50 [nM]	SMILES
4300	CC(C)C[C@H](NC(=O)N1CCOCC1)C(=O)N[C@@H](Cc1ccc(OCc2ccccc2)cc1)C(=O)N1CCCCC1 (relative stereo) [Example 151, [S(R*,R*)]-Morpholine-4-carboxylic acid {1-[1-(4-benzyloxy-benzyl)-2oxo-2-piperidin-1-ylethylcarbamoyl]-3-methyl-butyl}amide]
280	CC(C)C[C@H](NC(=O)N1CCCCCC1)C(=O)N[C@@H](Cc1ccc(OCc2ccccc2)cc1)C(=O)Nc1ccc(Br)cc1 (relative stereo) [Example 173, [S-(R*,R*)]-Azepane-1-carboxylic acid {1-[2-(4-benzyloxy-phenyl)-1-(4-bromophenylcarbamoyl)-ethylcarbamoyl]-3-methyl-butyl}-amide]

— US6423689B1, “Peptidyl calcium channel blockers” (Warner-Lambert Company, priority 1997, dated 2002)
